Reference: ChEMBL document CHEMBL3758172, “Design and synthesis of fluorescent and biotin tagged probes for the study of molecular actions of FAF1 inhibitor” (Bioorg Med Chem Lett, 2016)
The source made the active and inactive calls. The rule behind the calls is not given here.

Legend:
SH-SY5Y [1] = experiment: Inhibition of ischemic cell death in human SH-SY5Y cells assessed as LDH release at 20 uM pretreated for 30 mins followed by addition of 500 uM H2O2 measured after 6 hrs; assay type: functional, cell-based
SH-SY5Y [2] = experiment: Inhibition of ischemic cell death in human SH-SY5Y cells assessed as cell viability pretreated for 30 mins followed by addition of 500 uM H2O2 measured after 6 hrs by MTS assay; assay type: functional, cell-based
[3] = biological target: T1, FAS-associated factor 1 (Homo sapiens) (UniProt Q9UNN5); experiment: Binding affinity to FLAG-tagged FAF1 (unknown origin) expressed in H2O2-treated human SH-SY5Y cells at 100 uM after 12 hrs by immunoblot analysis; assay type: cell-based
T1 sequence (whole entry): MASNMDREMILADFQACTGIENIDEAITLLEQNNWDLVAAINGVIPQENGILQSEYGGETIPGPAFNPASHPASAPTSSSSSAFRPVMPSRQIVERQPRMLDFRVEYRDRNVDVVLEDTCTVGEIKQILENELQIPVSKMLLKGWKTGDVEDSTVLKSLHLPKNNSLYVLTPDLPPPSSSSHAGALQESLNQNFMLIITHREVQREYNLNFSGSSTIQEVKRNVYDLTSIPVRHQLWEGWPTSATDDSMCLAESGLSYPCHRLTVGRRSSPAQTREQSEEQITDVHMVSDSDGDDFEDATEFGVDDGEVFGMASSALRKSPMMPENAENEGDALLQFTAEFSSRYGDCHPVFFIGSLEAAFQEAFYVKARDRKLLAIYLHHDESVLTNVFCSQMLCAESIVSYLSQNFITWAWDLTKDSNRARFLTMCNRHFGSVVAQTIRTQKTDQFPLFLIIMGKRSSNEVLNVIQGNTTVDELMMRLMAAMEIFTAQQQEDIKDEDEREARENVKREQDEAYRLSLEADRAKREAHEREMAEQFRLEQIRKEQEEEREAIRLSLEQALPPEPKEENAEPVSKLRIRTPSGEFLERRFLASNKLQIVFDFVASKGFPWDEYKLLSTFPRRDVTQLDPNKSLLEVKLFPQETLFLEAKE

[4] = biological target: T1, FAS-associated factor 1 (Homo sapiens); experiment: Binding affinity to FLAG-tagged FAF1 (unknown origin) expressed in H2O2-treated human SH-SY5Y cells after 12 hrs by immunoblot analysis; assay type: cell-based

| SMILES | inhibition (SH-SY5Y [1]) | inhibition (SH-SY5Y [2]) | inhibition [3] | inhibition [4] |
| --- | --- | --- | --- | --- |
| O=C(CCCC[C@@H]1SC[C@@H]2NC(=O)N[C@@H]21)NCCCCOc1ccc(CCn2cc(NC(=O)CSc3ccc(Br)cc3)c(C(=O)O)n2)cc1 | Active | Active | Active | – |
| CN(C)c1cccc2c(S(=O)(=O)NCCCCOc3ccc(CCn4cc(NC(=O)CSc5ccc(Br)cc5)c(C(=O)O)n4)cc3)cccc12 | Active | Active | – | Active |
| O=C(CSc1ccc(Br)cc1)Nc1cn(CCc2ccccc2)nc1C(=O)O | Active | Active | – | – |
